Experimental data reported in the kinase profiling compilation of Christmann-Franck et al. (2016).

Tests used:
Experiment in all cases: KINOMEscan competition binding
Conditions in all cases: compound 10.0 µM
ACVR1 (human) = ACVR1 (human) (UniProt Q04771)
ACVR2B (human) = ACVR2B (human) (UniProt Q13705)
CAMK2A (human) = CAMK2A (human) (UniProt Q9UQM7)
CASK (human) = CASK (human) (UniProt O14936)
CDKL3 (human) = CDKL3 (human) (UniProt Q8IVW4)
CDKL5 (human) = CDKL5 (human) (UniProt O76039)
CHUK (human) = CHUK (human) (UniProt O15111)
CHUK (human), sequence (O15111 whole entry, looked up): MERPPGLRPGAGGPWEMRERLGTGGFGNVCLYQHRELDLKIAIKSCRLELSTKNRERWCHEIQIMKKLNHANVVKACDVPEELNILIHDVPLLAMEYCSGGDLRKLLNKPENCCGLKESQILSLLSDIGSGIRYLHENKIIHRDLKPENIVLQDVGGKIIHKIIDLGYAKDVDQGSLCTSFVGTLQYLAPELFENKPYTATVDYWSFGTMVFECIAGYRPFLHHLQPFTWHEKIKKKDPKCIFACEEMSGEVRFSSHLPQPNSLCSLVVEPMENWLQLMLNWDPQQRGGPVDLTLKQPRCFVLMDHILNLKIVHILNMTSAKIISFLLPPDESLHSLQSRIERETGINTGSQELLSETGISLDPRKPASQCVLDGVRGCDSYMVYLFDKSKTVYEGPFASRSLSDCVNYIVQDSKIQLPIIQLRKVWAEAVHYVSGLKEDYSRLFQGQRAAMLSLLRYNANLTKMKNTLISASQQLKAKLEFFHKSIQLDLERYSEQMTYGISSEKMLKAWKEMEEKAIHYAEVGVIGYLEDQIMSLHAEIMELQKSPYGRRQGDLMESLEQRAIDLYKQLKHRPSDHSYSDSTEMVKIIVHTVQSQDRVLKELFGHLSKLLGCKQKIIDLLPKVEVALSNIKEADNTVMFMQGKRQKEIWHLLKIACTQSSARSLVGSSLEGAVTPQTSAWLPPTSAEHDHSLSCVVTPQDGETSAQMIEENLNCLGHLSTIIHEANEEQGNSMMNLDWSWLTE

CPK1 (P.falciparum) = tested on: CPK1 (P.falciparum)
CSNK1D (human) = CSNK1D (human) (UniProt P48730)
CSNK1D (human), sequence (P48730 whole entry, looked up): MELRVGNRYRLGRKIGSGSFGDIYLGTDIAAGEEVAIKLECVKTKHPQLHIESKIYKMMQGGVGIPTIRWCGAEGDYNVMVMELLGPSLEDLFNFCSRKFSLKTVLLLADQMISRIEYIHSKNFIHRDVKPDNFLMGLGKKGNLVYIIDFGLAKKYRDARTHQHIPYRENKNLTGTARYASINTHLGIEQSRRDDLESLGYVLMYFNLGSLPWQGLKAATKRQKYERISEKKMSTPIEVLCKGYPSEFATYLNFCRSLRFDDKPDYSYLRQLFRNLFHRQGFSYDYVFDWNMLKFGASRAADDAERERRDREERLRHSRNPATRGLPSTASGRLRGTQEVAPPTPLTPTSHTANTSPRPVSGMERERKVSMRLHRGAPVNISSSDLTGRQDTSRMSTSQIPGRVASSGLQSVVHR

ERBB3 (human) = ERBB3 (human) (UniProt P21860)
FGFR2 (human) = FGFR2 (human) (UniProt P21802)
[1] = tested on: FGFR3 (human), P22607 [G697C]
ITK (human) = ITK (human) (UniProt Q08881)
[2] = biological target: JAK3 JH1 catalytic (human) (UniProt P52333)
[3] = tested on: KIT (human), P10721 [D816H]
MAP2K2 (human) = MAP2K2 (human) (UniProt P36507)
MAP3K15 (human) = MAP3K15 (human) (UniProt Q6ZN16)
MAP3K3 (human) = MAP3K3 (human) (UniProt Q99759)
MAP3K3 (human), sequence (Q99759 whole entry, looked up): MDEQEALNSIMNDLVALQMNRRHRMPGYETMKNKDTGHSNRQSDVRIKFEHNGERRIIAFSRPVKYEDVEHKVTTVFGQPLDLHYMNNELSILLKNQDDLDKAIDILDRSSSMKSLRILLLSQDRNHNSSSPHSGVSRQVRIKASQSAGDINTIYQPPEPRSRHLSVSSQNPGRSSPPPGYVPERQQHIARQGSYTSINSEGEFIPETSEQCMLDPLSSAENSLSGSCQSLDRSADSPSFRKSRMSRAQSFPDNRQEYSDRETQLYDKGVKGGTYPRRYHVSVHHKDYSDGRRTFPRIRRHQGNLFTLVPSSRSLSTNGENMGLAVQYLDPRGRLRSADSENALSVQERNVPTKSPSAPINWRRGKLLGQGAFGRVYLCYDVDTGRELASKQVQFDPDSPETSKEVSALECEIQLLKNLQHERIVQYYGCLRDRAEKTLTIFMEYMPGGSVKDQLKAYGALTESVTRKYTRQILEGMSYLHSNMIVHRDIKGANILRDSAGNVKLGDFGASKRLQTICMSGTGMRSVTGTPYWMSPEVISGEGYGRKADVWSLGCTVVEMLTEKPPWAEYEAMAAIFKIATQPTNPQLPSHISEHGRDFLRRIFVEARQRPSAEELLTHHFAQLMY

MAPK1 (human) = MAPK1 (human) (UniProt P28482)
MAPK12 (human) = MAPK12 (human) (UniProt P53778)
MAPK6 (human) = MAPK6 (human) (UniProt Q16659)
MARK3 (human) = MARK3 (human) (UniProt P27448)
MERTK (human) = MERTK (human) (UniProt Q12866)
MERTK (human), sequence (Q12866 whole entry, looked up): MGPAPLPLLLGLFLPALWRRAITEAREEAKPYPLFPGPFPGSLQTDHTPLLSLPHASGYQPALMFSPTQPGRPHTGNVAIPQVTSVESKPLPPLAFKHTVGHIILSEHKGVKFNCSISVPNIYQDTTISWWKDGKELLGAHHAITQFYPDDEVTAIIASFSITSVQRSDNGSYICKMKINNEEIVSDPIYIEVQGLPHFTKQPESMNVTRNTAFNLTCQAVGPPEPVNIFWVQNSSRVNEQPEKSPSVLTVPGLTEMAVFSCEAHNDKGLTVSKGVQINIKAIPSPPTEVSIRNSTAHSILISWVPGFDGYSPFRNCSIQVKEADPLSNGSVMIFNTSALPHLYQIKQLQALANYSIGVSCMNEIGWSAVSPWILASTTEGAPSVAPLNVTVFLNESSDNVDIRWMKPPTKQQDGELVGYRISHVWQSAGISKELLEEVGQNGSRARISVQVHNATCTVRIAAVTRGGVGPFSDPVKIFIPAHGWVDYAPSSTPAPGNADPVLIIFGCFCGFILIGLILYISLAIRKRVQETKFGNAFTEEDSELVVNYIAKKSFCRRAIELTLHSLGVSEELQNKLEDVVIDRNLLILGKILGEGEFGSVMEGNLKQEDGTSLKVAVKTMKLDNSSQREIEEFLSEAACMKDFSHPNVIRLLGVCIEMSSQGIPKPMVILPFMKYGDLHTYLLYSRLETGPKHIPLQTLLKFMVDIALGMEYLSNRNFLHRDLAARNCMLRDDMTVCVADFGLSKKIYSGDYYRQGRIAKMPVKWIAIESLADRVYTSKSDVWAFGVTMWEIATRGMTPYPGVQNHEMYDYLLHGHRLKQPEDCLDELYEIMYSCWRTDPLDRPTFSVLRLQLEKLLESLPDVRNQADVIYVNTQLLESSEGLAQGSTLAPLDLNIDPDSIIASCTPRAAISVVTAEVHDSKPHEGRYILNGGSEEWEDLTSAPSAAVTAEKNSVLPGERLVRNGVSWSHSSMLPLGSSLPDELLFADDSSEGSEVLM

MYLK (human) = MYLK (human) (UniProt Q15746)
NEK6 (human) = NEK6 (human) (UniProt Q9HC98)
NIM1 (human) = NIM1 (human) (UniProt Q8IY84)
NLK (human) = NLK (human) (UniProt Q9UBE8)
PDGFRB (human) = PDGFRB (human) (UniProt P09619)
PDGFRB (human), sequence (P09619 whole entry, looked up): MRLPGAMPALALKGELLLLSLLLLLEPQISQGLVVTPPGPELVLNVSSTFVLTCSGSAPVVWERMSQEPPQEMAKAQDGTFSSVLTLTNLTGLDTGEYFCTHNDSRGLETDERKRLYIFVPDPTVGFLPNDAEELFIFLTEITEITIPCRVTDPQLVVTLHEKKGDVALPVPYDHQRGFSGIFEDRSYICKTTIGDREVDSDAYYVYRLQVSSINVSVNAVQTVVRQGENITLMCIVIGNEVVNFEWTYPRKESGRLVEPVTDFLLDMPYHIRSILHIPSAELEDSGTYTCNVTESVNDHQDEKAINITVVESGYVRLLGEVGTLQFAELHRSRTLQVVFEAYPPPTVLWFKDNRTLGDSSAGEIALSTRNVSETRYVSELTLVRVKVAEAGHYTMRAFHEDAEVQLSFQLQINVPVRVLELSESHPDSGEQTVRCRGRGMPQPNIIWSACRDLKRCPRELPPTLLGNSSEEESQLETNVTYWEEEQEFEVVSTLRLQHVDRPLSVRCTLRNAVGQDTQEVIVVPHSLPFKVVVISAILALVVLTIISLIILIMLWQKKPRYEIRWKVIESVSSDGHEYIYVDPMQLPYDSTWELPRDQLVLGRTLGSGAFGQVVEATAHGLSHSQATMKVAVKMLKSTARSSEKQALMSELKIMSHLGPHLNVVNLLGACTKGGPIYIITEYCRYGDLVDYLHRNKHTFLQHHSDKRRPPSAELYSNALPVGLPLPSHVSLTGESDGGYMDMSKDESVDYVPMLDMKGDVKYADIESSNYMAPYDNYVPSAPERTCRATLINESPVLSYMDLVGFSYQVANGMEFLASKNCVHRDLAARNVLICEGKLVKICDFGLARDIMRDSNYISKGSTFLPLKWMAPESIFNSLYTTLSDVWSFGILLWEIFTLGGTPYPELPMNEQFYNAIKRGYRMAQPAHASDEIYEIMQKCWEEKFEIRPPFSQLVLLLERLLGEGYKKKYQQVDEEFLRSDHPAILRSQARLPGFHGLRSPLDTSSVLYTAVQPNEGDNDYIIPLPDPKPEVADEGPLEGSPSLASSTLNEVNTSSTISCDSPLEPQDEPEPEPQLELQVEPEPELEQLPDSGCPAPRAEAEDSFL

PDPK1 (human) = PDPK1 (human) (UniProt O15530)
PHKG2 (human) = PHKG2 (human) (UniProt P15735)
[4] = tested on: PIK3CA (human), P42336 [M1043I]
PRKCH (human) = PRKCH (human) (UniProt P24723)
PRKG1 (human) = PRKG1 (human) (UniProt Q13976)
ROCK2 (human) = ROCK2 (human) (UniProt O75116)
RPS6KA4 KD1 (human) = RPS6KA4 KD1 (human) (UniProt O75676)
SBK1 (human) = SBK1 (human) (UniProt Q52WX2)
STK35 (human) = STK35 (human) (UniProt Q8TDR2)
SYK (human) = SYK (human) (UniProt P43405)
TEK (human) = TEK (human) (UniProt Q02763)
WEE1 (human) = WEE1 (human) (UniProt P30291)

CDKL3 (human), sequence (Q8IVW4 whole entry, looked up): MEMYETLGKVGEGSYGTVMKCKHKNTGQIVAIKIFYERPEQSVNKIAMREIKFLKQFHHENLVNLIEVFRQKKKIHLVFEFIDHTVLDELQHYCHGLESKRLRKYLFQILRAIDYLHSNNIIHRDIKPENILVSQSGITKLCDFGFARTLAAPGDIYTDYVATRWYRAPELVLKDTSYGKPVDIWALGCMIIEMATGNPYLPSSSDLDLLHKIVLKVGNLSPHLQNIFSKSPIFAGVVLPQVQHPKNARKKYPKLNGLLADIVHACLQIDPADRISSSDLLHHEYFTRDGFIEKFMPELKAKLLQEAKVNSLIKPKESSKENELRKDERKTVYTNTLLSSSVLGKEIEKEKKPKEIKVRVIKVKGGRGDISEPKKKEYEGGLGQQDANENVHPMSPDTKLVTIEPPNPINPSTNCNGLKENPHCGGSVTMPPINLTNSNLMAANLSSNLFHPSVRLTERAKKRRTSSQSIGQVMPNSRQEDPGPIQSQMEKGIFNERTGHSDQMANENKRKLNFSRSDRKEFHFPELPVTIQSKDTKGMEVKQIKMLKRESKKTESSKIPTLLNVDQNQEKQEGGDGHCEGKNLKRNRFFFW
ACVR2B (human), sequence (Q13705 whole entry, looked up): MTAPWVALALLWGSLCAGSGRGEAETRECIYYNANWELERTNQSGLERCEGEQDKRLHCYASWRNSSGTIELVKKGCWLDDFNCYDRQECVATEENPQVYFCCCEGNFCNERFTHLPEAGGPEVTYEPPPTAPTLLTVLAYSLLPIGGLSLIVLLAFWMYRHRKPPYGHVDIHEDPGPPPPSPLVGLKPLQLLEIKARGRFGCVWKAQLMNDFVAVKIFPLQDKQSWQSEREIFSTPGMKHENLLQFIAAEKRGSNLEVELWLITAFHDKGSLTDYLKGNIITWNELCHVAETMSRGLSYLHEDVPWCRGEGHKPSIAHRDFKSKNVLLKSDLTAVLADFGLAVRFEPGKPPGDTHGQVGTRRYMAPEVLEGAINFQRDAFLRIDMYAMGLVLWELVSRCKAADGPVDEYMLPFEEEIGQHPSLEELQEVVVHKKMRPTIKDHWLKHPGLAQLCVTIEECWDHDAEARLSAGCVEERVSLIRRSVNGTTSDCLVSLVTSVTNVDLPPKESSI

SMILES	kinase still bound, per cent of control (ACVR1 (human))	kinase still bound, per cent of control (ACVR2B (human))	kinase still bound, per cent of control (CAMK2A (human))	kinase still bound, per cent of control (CASK (human))	kinase still bound, per cent of control (CDKL3 (human))	kinase still bound, per cent of control (CDKL5 (human))	kinase still bound, per cent of control (CHUK (human))	kinase still bound, per cent of control (CPK1 (P.falciparum))	kinase still bound, per cent of control (CSNK1D (human))	kinase still bound, per cent of control (ERBB3 (human))	kinase still bound, per cent of control (FGFR2 (human))	kinase still bound, per cent of control [1]	kinase still bound, per cent of control (ITK (human))	kinase still bound, per cent of control [2]	kinase still bound, per cent of control [3]	kinase still bound, per cent of control (MAP2K2 (human))	kinase still bound, per cent of control (MAP3K15 (human))	kinase still bound, per cent of control (MAP3K3 (human))	kinase still bound, per cent of control (MAPK1 (human))	kinase still bound, per cent of control (MAPK12 (human))	also measured
CCN1CCN(Cc2ccc(NC(=O)c3ccc(C)c(/C=C/c4cnc5[nH]ccc5c4OC)c3)cc2C(F)(F)F)CC1	100%	62%	100%	77%	4%	78%	0%	0.2%	38%	100%	3.7%	2.5%	18%	1.1%	36%	58%	100%	1.4%	100%	40%	kinase still bound, per cent of control (MAPK6 (human)): 100%; kinase still bound, per cent of control (MARK3 (human)): 38%; kinase still bound, per cent of control (MERTK (human)): 9.2%; kinase still bound, per cent of control (MYLK (human)): 90%; kinase still bound, per cent of control (NEK6 (human)): 100%; kinase still bound, per cent of control (NIM1 (human)): 100%; kinase still bound, per cent of control (NLK (human)): 17%; kinase still bound, per cent of control (PDGFRB (human)): 0.05%; kinase still bound, per cent of control (PDPK1 (human)): 65%; kinase still bound, per cent of control (PHKG2 (human)): 100%; kinase still bound, per cent of control [4]: 84%; kinase still bound, per cent of control (PRKCH (human)): 100%; kinase still bound, per cent of control (PRKG1 (human)): 100%; kinase still bound, per cent of control (ROCK2 (human)): 34%; kinase still bound, per cent of control (RPS6KA4 KD1 (human)): 50%; kinase still bound, per cent of control (SBK1 (human)): 57%; kinase still bound, per cent of control (STK35 (human)): 23%; kinase still bound, per cent of control (SYK (human)): 7.2%; kinase still bound, per cent of control (TEK (human)): 0.1%; kinase still bound, per cent of control (WEE1 (human)): 100%
COc1cc2ncnc(Nc3cccc(Cl)c3)c2cc1OC	74%	54%	62%	67%	76%	97%	72%	34%	54%	18%	99%	100%	100%	38%	59%	25%	34%	6.6%	100%	100%	kinase still bound, per cent of control (MAPK6 (human)): 33%; kinase still bound, per cent of control (MARK3 (human)): 100%; kinase still bound, per cent of control (MERTK (human)): 71%; kinase still bound, per cent of control (MYLK (human)): 18%; kinase still bound, per cent of control (NEK6 (human)): 100%; kinase still bound, per cent of control (NIM1 (human)): 77%; kinase still bound, per cent of control (NLK (human)): 43%; kinase still bound, per cent of control (PDGFRB (human)): 30%; kinase still bound, per cent of control (PDPK1 (human)): 80%; kinase still bound, per cent of control (PHKG2 (human)): 93%; kinase still bound, per cent of control [4]: 76%; kinase still bound, per cent of control (PRKCH (human)): 100%; kinase still bound, per cent of control (PRKG1 (human)): 100%; kinase still bound, per cent of control (ROCK2 (human)): 39%; kinase still bound, per cent of control (RPS6KA4 KD1 (human)): 100%; kinase still bound, per cent of control (SBK1 (human)): 25%; kinase still bound, per cent of control (STK35 (human)): 58%; kinase still bound, per cent of control (SYK (human)): 54%; kinase still bound, per cent of control (TEK (human)): 97%; kinase still bound, per cent of control (WEE1 (human)): 93%
CNC(=O)Nc1ccc(-c2nc(N3CC4CCC(C3)O4)c3cnn(C4CCC5(CC4)OCCO5)c3n2)cc1	90%	77%	100%	64%	95%	79%	100%	86%	92%	100%	92%	74%	88%	90%	86%	100%	100%	100%	87%	54%	kinase still bound, per cent of control (MAPK6 (human)): 85%; kinase still bound, per cent of control (MARK3 (human)): 92%; kinase still bound, per cent of control (MERTK (human)): 87%; kinase still bound, per cent of control (MYLK (human)): 100%; kinase still bound, per cent of control (NEK6 (human)): 90%; kinase still bound, per cent of control (NIM1 (human)): 100%; kinase still bound, per cent of control (NLK (human)): 85%; kinase still bound, per cent of control (PDGFRB (human)): 89%; kinase still bound, per cent of control (PDPK1 (human)): 76%; kinase still bound, per cent of control (PHKG2 (human)): 96%; kinase still bound, per cent of control [4]: 4.4%; kinase still bound, per cent of control (PRKCH (human)): 91%; kinase still bound, per cent of control (PRKG1 (human)): 100%; kinase still bound, per cent of control (ROCK2 (human)): 100%; kinase still bound, per cent of control (RPS6KA4 KD1 (human)): 90%; kinase still bound, per cent of control (SBK1 (human)): 100%; kinase still bound, per cent of control (STK35 (human)): 95%; kinase still bound, per cent of control (SYK (human)): 100%; kinase still bound, per cent of control (TEK (human)): 100%; kinase still bound, per cent of control (WEE1 (human)): 79%
